According to article PMC11206245 (Pharmaceuticals, 2024):
“Also recorded” adds a separate entry of the source. Read-outs that look alike come from different tables or passages of the source.

What was measured:
healthy dogs [1] = assay: Study B: safety and toxicity, side and adverse effects, plasma biochemistry; assay type: in vivo
Experimental: (§1) Study B involved 9 healthy dogs (8 females and 1 male), including the 4 females from Study A after wash-out and upon confirmation of regular laboratory evaluations. […] Tolerability evaluations were performed via clinical examinations and blood sampling for laboratory evaluation after each treatment. For toxicity assessments, 4, 6, and 8 h after the final administration, the animals were euthanized for tissue collection and histopathological evaluation.
(§2) Hemograms were performed following blood collection.

[2] = set-up: method as in earlier work; settings: mice with MCF-7 breast tumors, 40 mg/kg intravenous dose; ref National Institute of Cancer's guide, https://dtp.cancer.gov/timeline/posters/AGG_Geldamycin.pdf; cited from earlier work
healthy dogs [3] = assay: Study B: histopathology of tissues after treatment; assay type: in vivo; settings: nine dogs, three IV doses of 150 mg/m^2
Experimental: as §1, §2

[4] = Study B multiple administrations of 150 mg/m^2: 17-AAG pharmacokinetics in plasma (HPLC); assay type: in vivo, dogs; settings: dog, iv; for AUC(0-t) / Cmax / half-life: both sexes, plasma, dogs, mean ± SD; for AUC(0-t): 150 mg/m2, AUC 0–8 h, Study B; for Cmax / half-life: 150 mg/m2, Study B; for half-life: read-out: t ½ (converted); for Clearance / DV (distribution volume): in vivo
Experimental: as §1
(§3) In Studies A and B, an intravenous catheter was placed in the cephalic vein of each animal’s right and left anterior limbs. […] Under both protocols, blood samples were centrifuged at 1500× g at 4 °C for 10 min.
(§4) For the mobile phase, acetonitrile (ACN, J.T.Baker®, Philadelphia, PA, USA) and water with 1% acetic acid (J.T.Baker®)were used. Briefly, aliquots of 200 µL of plasma or 100 µL of subcutaneous interstitial liquid were placed in a 1.5 mL microcentrifuge tube. Subsequently, 600 µL and 300 µL of ACN were added to all plasma and subcutaneous interstitial liquid samples, respectively. The mixture was vortexed for 30 s, followed by centrifugation at 3400× g for 10 min. Next, 500 µL of the plasma supernatant and 250 µL of the subcutaneous interstitial fluid were pipetted into a new vial. […] Data acquisition and processing were performed using LabSolutions software (Version 5.3).
(§5) Cmax, half-life (t ½), distribution volume, and clearance were also determined. Data were analyzed in Excel and WinNonlin using a mono-compartmental model.

[5] = set-up: method as in PMID 22124669, PMID 20618337; settings: humans; cited from earlier work
[6] = Study A dose-escalation protocol: 17-AAG pharmacokinetics in plasma (HPLC); assay type: in vivo; settings: dogs; for AUC / Cmax / half-life: female, dog; for AUC: AUC0–8h; for half-life: read-out: t½ (converted)
Experimental: as §3
as §4, with “vial. The method was validated in accordance with the International Council for Harmonization (ICH) technical requirements for the evaluation of medicinal products. […] No matrix interferences were observed. Two calibrated plasma curves of 17-AAG were validated with different injection volumes.” for “vial.”
as §5

[7] = Study B, third day, out of nine dogs
[8] = 1st of three IV administrations of 150 mg/m^2 at 48 h intervals
[9] = 2nd of three IV administrations of 150 mg/m^2 at 48 h intervals
[10] = 3rd of three IV administrations of 150 mg/m^2 at 48 h intervals
[11] = Study A, plasma, single IV dose 50 mg/m^2, mean ± SD
[12] = Study A, plasma, single IV dose 100 mg/m^2, mean ± SD
[13] = Study A, plasma, single IV dose 150 mg/m^2, mean ± SD
[14] = Study A, plasma, single IV dose 200 mg/m^2, mean ± SD
[15] = Study A, plasma, single IV dose 250 mg/m^2, mean ± SD
[16] = 50 mg/m2, Study A, plasma, single IV dose 50 mg/m^2, mean ± SD
[17] = 100 mg/m2, Study A, plasma, single IV dose 100 mg/m^2, mean ± SD
[18] = 150 mg/m2, Study A, plasma, single IV dose 150 mg/m^2, mean ± SD
[19] = 200 mg/m2, Study A, plasma, single IV dose 200 mg/m^2, mean ± SD
[20] = 250 mg/m2, Study A, plasma, single IV dose 250 mg/m^2, mean ± SD

For C=CCNC1=C2C[C@@H](C)C[C@H](OC)[C@H](O)[C@@H](C)/C=C(\C)[C@H](OC(N)=O)[C@@H](OC)/C=C\C=C(/C)C(=O)NC(=CC1=O)C2=O [17-AAG, 17-(allylamino)-17-demethoxygeldanamycin], the “Animals with elevated transaminase levels persisting” value (healthy dogs [1]; Study B, by the fourth day) was “only one animal”, the “Animals with bloody diarrhea” value (healthy dogs [1]; Study B, fourth day) was “one animal” and the “Animals with pale feces” value (healthy dogs [1]; Study B, fourth day) was “seven out of nine”. For the same compound, the “Dogs with elevated levels of ALT and AST” value (healthy dogs [1]; Study B, multiple doses of 150 mg/m^2, three out of nine) was 33%, the “Animals with pasty feces” value (healthy dogs [1]; Study B, second day after administering the second dose) was “two out of nine” and the “Animals with bloody diarrhea” value (healthy dogs [1]; [7]) was “one”. For the same compound, the “Animals with diarrhea with liquid feces” value (healthy dogs [1]; [7]) was “three”, the “Animals with pasty feces” value (healthy dogs [1]; [7]) was “two” and the “Dogs presenting elevated levels of ALT, AST and GGT” value (healthy dogs [1]; Study B, three IV doses of 150 mg/m^2) was 3/9. For the same compound, the “Animals with skin reaction with temporarily erupted hairs” value (healthy dogs [1]; dog, in vivo) was “only one animal”, the “Animals presenting adverse reactions: ALT” value (healthy dogs [1]; dog, in vivo, iv) was 3 (33%) n (%) and the “Animals presenting adverse reactions: AST” value (healthy dogs [1]; dog, in vivo, iv) was 3 (33%) n (%). The “Animals presenting adverse reactions: bloody diarrhea” value (healthy dogs [1]; dog, in vivo, iv) was 1 (11%) n (%), the “Animals presenting adverse reactions: diarrhea (liquid feces)” value (healthy dogs [1]; dog, in vivo, iv) was 3 (33%) n (%) and the “Animals presenting adverse reactions: erythema” value (healthy dogs [1]; dog, in vivo, iv) was 0 n (%). For the same compound, the “Animals presenting adverse reactions: hyperthermia” value (healthy dogs [1]; dog, in vivo, iv) was 0 n (%), the “Animals presenting adverse reactions: nausea” value (healthy dogs [1]; dog, in vivo, iv) was 0 n (%) and the “Animals presenting adverse reactions: pasty feces” value (healthy dogs [1]; dog, in vivo, iv) was 9 (100%) n (%). For the same compound, the “Animals presenting adverse reactions: pruritus” value (healthy dogs [1]; dog, in vivo, iv) was 0 n (%), the “Animals presenting adverse reactions: vomit” value (healthy dogs [1]; dog, in vivo, iv) was 0 n (%) and the maximum plasma half-life [2] was 264 min. For the same compound, the “Histopathological alterations in the lung and heart” value (healthy dogs [3]) was “no histopathological alterations”, the AUC(0-t) [4, 8] was 6350 ± 432 ng·h/mL and the AUC(0-t) [4, 9] was 7050 ± 382 ng·h/mL. For the same compound, the AUC(0-t) [4, 10] was 6850 ± 69 ng·h/mL, the Cmax [4, 8] was 6310 ± 2200 ng/mL and the Cmax [4, 9] was 5910 ± 1130 ng/mL. It also gave a Cmax [4, 10] of 5250 ± 2780 ng/mL, a half-life [4, 8] of 41.4 ± 13.2 min and a half-life [4, 9] of 41.4 ± 14.4 min. For the same compound, the half-life [4, 10] was 48.6 ± 21 min, the Clearance ([4]; 1st administration) was 0.023 ± 0.002 L/m^2/h and the “DV (distribution volume)” value ([4]; 1st administration) was 0.029 ± 0.003 L/m^2. For the same compound, the Clearance ([4]; 2nd administration) was 0.021 ± 0.001 L/m^2/h, the “DV (distribution volume)” value ([4]; 2nd administration) was 0.030 ± 0.002 L/m^2 and the Clearance ([4]; 3rd administration) was 0.022 ± 0.002 L/m^2/h. For the same compound, the “DV (distribution volume)” value ([4]; 3rd administration) was 0.033 ± 0.003 L/m^2, the half-life [5] was 180 to 360 min and the “Clearance from plasma, on average” value ([6]; Study A, average over doses 50–250 mg/m^2) was 0.026 ± 0.010 L/h/m^2. For the same compound, the “Dose-proportionality of Cmax and AUC” value ([6]; Study A, plasma, IV doses 50–250 mg/m^2) was “linear correlation between doses ranging from 50 to 200 mg/m^2; also recorded: dose-proportionate between the 50 and 200 mg/m^2 doses”, the Clearance [6, 11] was 0.04 ± 0.02 L/m^2/h and the “DV (distribution volume)” value [6, 11] was 0.03 ± 0.02 L/m^2. For the same compound, the Clearance [6, 12] was 0.03 ± 0.01 L/m^2/h, the “DV (distribution volume)” value [6, 12] was 0.02 ± 0.01 L/m^2 and the Clearance [6, 13] was 0.02 ± 0.00 L/m^2/h. For the same compound, the “DV (distribution volume)” value [6, 13] was 0.02 ± 0.00 L/m^2, the Clearance [6, 14] was 0.02 ± 0.00 L/m^2/h and the “DV (distribution volume)” value [6, 14] was 0.02 ± 0.00 L/m^2. The Clearance [6, 15] was 0.03 ± 0.01 L/m^2/h, the “DV (distribution volume)” value [6, 15] was 0.02 ± 0.00 L/m^2 and the “maximum plasma concentration (Cmax), lower end of range” value ([6]; abstract, after single IV doses 50–250 mg/m^2) was 1405 ± 686 ng/mL. It also gave an AUC [6, 16] of 1480 ± 695 ng·h/mL, a Cmax ([6]; 50 mg/m2, Study A, plasma, single IV dose 50 mg/m^2, mean ± SD, read-out: Cmax) of 1410 ± 687 ng/mL and a half-life [6, 16] of 32.4 ± 1.8 min. For the same compound, the AUC [6, 17] was 4380 ± 1630 ng·h/mL, the Cmax ([6]; 100 mg/m2, Study A, plasma, single IV dose 100 mg/m^2, mean ± SD, read-out: Cmax) was 3760 ± 1420 ng/mL and the half-life [6, 17] was 36.6 ± 4.8 min. It also gave an AUC [6, 18] of 7930 ± 1550 ng·h/mL, a Cmax ([6]; 150 mg/m2, Study A, plasma, single IV dose 150 mg/m^2, mean ± SD, read-out: Cmax) of 6940 ± 1340 ng/mL and a half-life [6, 18] of 35.4 ± 2.4 min. It also gave an AUC [6, 19] of 11900 ng·h/mL, a Cmax ([6]; 200 mg/m2, Study A, plasma, single IV dose 200 mg/m^2, mean ± SD, read-out: Cmax) of 9440 ± 991 ng/mL and a half-life [6, 19] of 40.2 ± 3 min. For the same compound, the AUC [6, 20] was 9630 ± 2670 ng·h/mL, the Cmax ([6]; 250 mg/m2, Study A, plasma, single IV dose 250 mg/m^2, mean ± SD, read-out: Cmax) was 8610 ± 1060 ng/mL and the half-life [6, 20] was 34.2 ± 12.6 min. It also gave a Cmax ([6]; plasma, abstract, after single IV doses 50–250 mg/m^2, read-out: maximum plasma concentration (Cmax), upper end of range) of 9440 ± 991 ng/mL.
